Results from patent US10787447B2, “Pharmaceutical compounds” (Heptares Therapeutics Limited, priority 2018, dated 2020).

Columns and labels:
Format in all cases: cell-based
[1] = target: T1, human muscarinic M1 receptor (Homo sapiens, UniProt P11229); experiment: Alphascreen Surefire phospho-ERK1/2 functional assay, M1; conditions: for % Emax cf. ACh, M1: CHO cells stably expressing human M1; for % Emax cf. ACh, M1 / Emax: Emax relative to ACh; for EC50: pEC50 M1, CHO cells stably expressing human M1, phospho-ERK1/2; for Emax: CHO, read-out: % Emax cf. ACh, M1, CHO cells stably expressing human M1
T1 sequence (P11229 1-460): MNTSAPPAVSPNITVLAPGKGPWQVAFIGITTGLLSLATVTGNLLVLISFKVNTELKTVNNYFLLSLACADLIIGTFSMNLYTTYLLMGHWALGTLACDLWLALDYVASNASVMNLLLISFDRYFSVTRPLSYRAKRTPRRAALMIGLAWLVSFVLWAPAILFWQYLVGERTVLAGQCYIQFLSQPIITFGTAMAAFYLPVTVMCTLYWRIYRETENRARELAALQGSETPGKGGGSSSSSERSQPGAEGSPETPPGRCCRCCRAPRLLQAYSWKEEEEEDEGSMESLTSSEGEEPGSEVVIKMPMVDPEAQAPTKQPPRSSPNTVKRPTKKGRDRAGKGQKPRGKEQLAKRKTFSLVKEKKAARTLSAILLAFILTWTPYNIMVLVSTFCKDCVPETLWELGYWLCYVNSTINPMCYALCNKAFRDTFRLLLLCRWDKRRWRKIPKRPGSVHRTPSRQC
How it was run: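 Stably transfected CHO cells, serum-starved overnight, then exposed to agonist for 5 min at 37 °C. Cells lysed and phospho-ERK1/2 measured by AlphaScreen SureFire.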

[2] = target: T2, human muscarinic M2 receptor (Homo sapiens, UniProt P08172); experiment: Alphascreen Surefire phospho-ERK1/2 functional assay, M2; conditions: for % Emax cf. ACh, M2: CHO cells stably expressing human M2; for EC50: pEC50 M2, CHO cells stably expressing human M2, phospho-ERK1/2
T2 sequence (P08172 1-466): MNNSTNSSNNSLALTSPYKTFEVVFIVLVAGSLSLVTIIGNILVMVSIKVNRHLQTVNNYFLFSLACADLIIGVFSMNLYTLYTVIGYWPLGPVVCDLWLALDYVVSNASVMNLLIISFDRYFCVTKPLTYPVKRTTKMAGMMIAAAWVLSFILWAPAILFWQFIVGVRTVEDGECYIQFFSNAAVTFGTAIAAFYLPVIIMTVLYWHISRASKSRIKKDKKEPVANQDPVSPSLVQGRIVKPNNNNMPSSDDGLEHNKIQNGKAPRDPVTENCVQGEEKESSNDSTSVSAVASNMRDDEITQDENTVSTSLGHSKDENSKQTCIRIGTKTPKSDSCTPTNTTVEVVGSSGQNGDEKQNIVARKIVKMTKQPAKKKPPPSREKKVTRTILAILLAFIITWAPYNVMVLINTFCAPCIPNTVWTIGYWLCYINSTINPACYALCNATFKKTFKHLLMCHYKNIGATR
How it was run: (§1)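 CHO cells stably expressing human M1, M2, M3 or M4 receptor, serum-starved overnight, then stimulated with agonist for 5 min at 37 °C. Cells lysed for 15 min and phospho-ERK1/2 detected in the lysate by AlphaScreen SureFire.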

[3] = target: T3, human muscarinic M3 receptor (Homo sapiens, UniProt P20309); experiment: Alphascreen Surefire phospho-ERK1/2 functional assay, M3; conditions: for Emax: CHO, read-out: % Emax cf. ACh, M3, CHO cells stably expressing human M3; for Emax / % Emax cf. ACh, M3: Emax relative to ACh; for EC50: pEC50 M3, CHO cells stably expressing human M3, phospho-ERK1/2; for % Emax cf. ACh, M3: CHO cells stably expressing human M3
T3 construct: expressed in transfected cells
How it was run: as §1

[4] = target: T4, human muscarinic M4 receptor (Homo sapiens, UniProt P08173); experiment: Alphascreen Surefire phospho-ERK1/2 functional assay, M4; conditions: for % Emax cf. ACh, M4: CHO cells stably expressing human M4; for EC50: pEC50 M4, CHO cells stably expressing human M4, phospho-ERK1/2
T4 sequence (P08173 1-479): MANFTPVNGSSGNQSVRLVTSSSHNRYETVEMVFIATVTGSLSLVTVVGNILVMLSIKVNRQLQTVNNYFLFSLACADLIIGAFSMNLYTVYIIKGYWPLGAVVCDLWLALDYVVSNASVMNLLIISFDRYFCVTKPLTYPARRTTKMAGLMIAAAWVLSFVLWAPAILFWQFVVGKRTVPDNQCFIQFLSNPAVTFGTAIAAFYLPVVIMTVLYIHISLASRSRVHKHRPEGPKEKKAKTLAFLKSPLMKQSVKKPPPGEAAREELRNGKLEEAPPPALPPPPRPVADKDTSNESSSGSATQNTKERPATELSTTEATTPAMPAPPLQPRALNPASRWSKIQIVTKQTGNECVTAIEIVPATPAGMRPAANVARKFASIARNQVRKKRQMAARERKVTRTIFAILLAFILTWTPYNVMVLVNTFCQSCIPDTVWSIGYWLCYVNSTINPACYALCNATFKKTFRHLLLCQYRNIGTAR
How it was run: as §1

[5] = Emax relative to ACh, listed as 6-4 Isomer 2
[6] = Emax relative to ACh, listed as 6-5 Isomer 1
[7] = Emax relative to ACh, listed as 6-5 Isomer 2
[8] = Emax relative to ACh, listed as 6-6 Isomer 1
[9] = Emax relative to ACh, listed as 6-6 Isomer 2
[10] = Emax relative to ACh, listed as 6-7 Isomer 1
[11] = Emax relative to ACh, listed as 6-7 Isomer 2

T3 sequence (P20309 whole entry): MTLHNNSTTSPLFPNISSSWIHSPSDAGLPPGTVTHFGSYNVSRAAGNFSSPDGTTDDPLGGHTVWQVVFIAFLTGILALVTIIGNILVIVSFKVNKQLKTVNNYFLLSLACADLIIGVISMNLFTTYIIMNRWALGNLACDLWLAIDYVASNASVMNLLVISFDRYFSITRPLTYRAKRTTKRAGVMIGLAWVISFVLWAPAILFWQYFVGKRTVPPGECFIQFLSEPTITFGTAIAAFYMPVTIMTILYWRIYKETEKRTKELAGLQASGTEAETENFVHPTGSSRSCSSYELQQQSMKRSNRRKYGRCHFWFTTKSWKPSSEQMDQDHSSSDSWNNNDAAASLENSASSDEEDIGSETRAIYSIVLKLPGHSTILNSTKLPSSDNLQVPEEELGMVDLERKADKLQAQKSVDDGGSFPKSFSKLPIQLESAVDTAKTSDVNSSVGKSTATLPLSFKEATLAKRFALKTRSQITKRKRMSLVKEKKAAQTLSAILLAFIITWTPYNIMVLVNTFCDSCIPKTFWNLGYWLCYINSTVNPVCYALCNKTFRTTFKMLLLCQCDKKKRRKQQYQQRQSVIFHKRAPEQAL

For `CCOC(=O)N1C2COCC1CC(N1CCC(N(CC3(C)CCC3)C(C)=O)CC1)C2` (single isomer, unassigned) [Example 6-4 Isomer 2, Ethyl 7-(4-{acetyl[(1-methylcyclobutyl)methyl]amino}piperidin-1-yl)-3-oxa-9-azabicyclo[3.3.1]nonane-9-carboxylate], the “% Emax cf. ACh, M1” value ([1]; listed as 6-4 Isomer 2) was 72%, the EC50 [1] was 33.9 nM and the “% Emax cf. ACh, M2” value [2, 5] was 15%. The EC50 [2] was > 20000 nM, the Emax [3] was 19% and the EC50 [3] was > 20000 nM. For the same compound, the “% Emax cf. ACh, M4” value [4, 5] was 38% and the EC50 [4] was 204 nM.

In the case of `CCOC(=O)N1C2COCC1CC(N1CCC(N(Cc3ccccc3)C(C)=O)CC1)C2` (single isomer, unassigned) [Example 6-5 Isomer 1, Ethyl 7-{4-[acetyl(benzyl)amino]piperidin-1-yl}-3-oxa-9-azabicyclo[3.3.1]nonane-9-carboxylate], the Emax [1] is reported as 92%, the EC50 [1] is reported as 166 nM and the “% Emax cf. ACh, M2” value [2, 6] is reported as 11%. For the same compound, the EC50 [2] was > 20000 nM, the “% Emax cf. ACh, M3” value ([3]; listed as 6-5 Isomer 1) was 13% and the EC50 [3] was > 20000 nM. The “% Emax cf. ACh, M4” value [4, 6] was 50% and the EC50 [4] was 302 nM.

With `CCOC(=O)N1C2COCC1CC(N1CCC(N(Cc3ccccc3)C(C)=O)CC1)C2` (single isomer, unassigned) [Example 6-5 Isomer 2, Ethyl 7-{4-[acetyl(benzyl)amino]piperidin-1-yl}-3-oxa-9-azabicyclo[3.3.1]nonane-9-carboxylate] the “% Emax cf. ACh, M1” value [1] was 91%, the EC50 [1] was 15.8 nM and the “% Emax cf. ACh, M2” value [2, 7] was 68%. The EC50 [2] was 2340 nM, the “% Emax cf. ACh, M3” value ([3]; listed as 6-5 Isomer 2) was 83% and the EC50 [3] was 2820 nM. For the same compound, the “% Emax cf. ACh, M4” value [4, 7] was 73% and the EC50 [4] was 145 nM.

With `CCOC(=O)N1C2COCC1CC(N1CCC(N3CCCCC3=O)CC1)C2` (single isomer, unassigned) [Example 6-6 Isomer 1, Ethyl 7-(2-oxo-1,4′-bipiperidin-1′-yl)-3-oxa-9-azabicyclo[3.3.1]nonane-9-carboxylate] the “% Emax cf. ACh, M1” value ([1]; listed as 6-6 Isomer 1) was 103%, the EC50 [1] was 251 nM and the “% Emax cf. ACh, M2” value [2, 8] was 60%. For the same compound, the EC50 [2] was 339 nM, the “% Emax cf. ACh, M3” value ([3]; listed as 6-6 Isomer 1) was 7% and the EC50 [3] was > 20000 nM. The “% Emax cf. ACh, M4” value [4, 8] was 109% and the EC50 [4] was 19.1 nM.

`CCOC(=O)N1C2COCC1CC(N1CCC(N3CCCCC3=O)CC1)C2` (single isomer, unassigned) [Example 6-6 Isomer 2, Ethyl 7-(2-oxo-1,4′-bipiperidin-1′-yl)-3-oxa-9-azabicyclo[3.3.1]nonane-9-carboxylate] was tested, and the “% Emax cf. ACh, M1” value ([1]; listed as 6-6 Isomer 2) was 50%, the EC50 [1] was 977 nM and the “% Emax cf. ACh, M2” value [2, 9] was 6%. The EC50 [2] was > 20000 nM, the “% Emax cf. ACh, M3” value ([3]; listed as 6-6 Isomer 2) was 3% and the “% Emax cf. ACh, M4” value [4, 9] was 48%. The EC50 [4] was 81.3 nM.

For `CCOC(=O)N1C2COCC1CC(N1CCC(N3CCCCCC3=O)CC1)C2` (single isomer, unassigned) [Example 6-7 Isomer 1, Ethyl 7-[4-(2-oxoazepan-1-yl)piperidin-1-yl]-3-oxa-9-azabicyclo[3.3.1]nonane-9-carboxylate], the “% Emax cf. ACh, M1” value ([1]; listed as 6-7 Isomer 1) was 111%, the EC50 [1] was 646 nM and the “% Emax cf. ACh, M2” value [2, 10] was 87%. For the same compound, the EC50 [2] was 1020 nM, the “% Emax cf. ACh, M3” value ([3]; listed as 6-7 Isomer 1) was 28% and the EC50 [3] was > 20000 nM. The “% Emax cf. ACh, M4” value [4, 10] was 105% and the EC50 [4] was 75.9 nM.

With `CCOC(=O)N1C2COCC1CC(N1CCC(N3CCCCCC3=O)CC1)C2` (single isomer, unassigned) [Example 6-7 Isomer 2, Ethyl 7-[4-(2-oxoazepan-1-yl)piperidin-1-yl]-3-oxa-9-azabicyclo[3.3.1]nonane-9-carboxylate] the “% Emax cf. ACh, M1” value ([1]; listed as 6-7 Isomer 2) was 41%, the EC50 [1] was 2190 nM and the “% Emax cf. ACh, M2” value [2, 11] was 5%. For the same compound, the EC50 [2] was > 20000 nM, the “% Emax cf. ACh, M3” value ([3]; listed as 6-7 Isomer 2) was 2% and the “% Emax cf. ACh, M4” value [4, 11] was 52%. The EC50 [4] was 174 nM.

`CCOC(=O)N1C2COCC1CC(N1CCC(C(=O)NCC3CCC3)CC1)C2` (single isomer, unassigned) [Example 7-3 Isomer 1, Ethyl 7-{4-[(cyclobutylmethyl)carbamoyl]piperidin-1-yl}-3-oxa-9-azabicyclo[3.3.1]nonane-9-carboxylate] showed an Emax [1] of 100%, an EC50 [1] of 35.5 nM and an Emax ([2]; CHO, read-out: % Emax cf. ACh, M2, CHO cells stably expressing human M2, Emax relative to ACh) of 62%. For the same compound, the EC50 [2] was 1480 nM, the Emax [3] was 57% and the EC50 [3] was > 20000 nM. It also gave an Emax ([4]; CHO, read-out: % Emax cf. ACh, M4, CHO cells stably expressing human M4, Emax relative to ACh) of 97% and an EC50 [4] of 275 nM.
